The values below come from patent publication US12102685B2, “Immodulator peptides covalently modified with small molecules” (priority 2020, dated 2024).

The structures appear in SMILES notation. Marks after values point to notes of the source that are not given here. Peptide text beside a SMILES is read from it.

In assay [1] the test system is COL1 in HFF-1 dermal fibroblasts. Briefly: Collagen-1 ELISA in HFF-1 dermal fibroblasts (x11A). The assay is classed as cell-based. To be noted: peptide 2 uM, 72 hour; control (buffer) = 100. The procedure:
(§1) Immune modulation functions of immodulator peptides have potential untility in the field of cosmetics. HFF-1 cell line was obtained from American Type Culture Collection (ATCC). Cells were grown in a T-75 flask in DMEM Medium containing 10% fetal bovine serum and penicillin-streptomycin at 37° C. in a humidified, 5% CO2 incubator. Cells ([…], 2,000 cells/well) were plated in a 96-well plate and incubated overnight at 37° C. in a humidified, 5% CO2 incubator. Next day, […] of compounds were added (quadruplicate wells). After 72 hour incubation with the compound, supernatants were collected for Collagen-1 ELISA assay and cell viability was measured in a luminometer after the addition of […] CellTiterGlo reagent (Promega Inc, Madison, WI) as recommended by the manufacturer.
Collagen stimulating activity of immodulator peptides in HFF-1 dermal fibroblasts. Peptides were added to cells at 2 uM. COL1 immunoreactivity was measured in the supernatants of cultured cells by ELISA using a rabbit monoclonal anti-COL1 primary antibody (Abcam, Cambridge, MA). Control (buffer) value of immunoreactivity was set to 100.
On the technique in general: An ELISA detects its analyte on a solid surface through an enzyme-linked reagent.

Assay [2] is described as follows: Alexa488-SA-labelled IM1-IM6 binding to metal-charged NTA-coated plate (x2B d). To be noted: no peptide background = 1.0. As to the method: NTA-metal-affinity fluorescence assay was performed using 96-well NTA-metal-coated plates readily available from commercial sources such as Qiagen (Germantown, MD). NTA was charged with ferrous or ferric iron, zinc, copper, calcium, vanadium, ruthenium, cobalt, titanium, manganese or other metals. 400 ng of FITC-labeled immodulator peptide (or biotinylated immodulator peptide complexed to Alexa-488-labeled streptavidin) in PBS buffer was added per plate. After incubation at room temperature for 60 minutes, excess peptide was washed off and peptide was detected by measuring fluorescence (excitation 490 nm, emmission 525 nm) in a fluorometer. • (a) Using FITC-labeled IM3 peptide (1 ug/well) in the fluorescent binding assay: • EDTA-treated control: 2,251±1,186 • Ferrous iron: 170,441±11,264 (p<0.001)* • Copper: 13,644±5566 (p<0.05)* • Calcium: 48,822±11,990 (p<0.01)* • *p values are relative to EDTA-treated control • (b) Competition binding assay to ferrous iron, calcium, copper and zinc-charged NTA-coated plates using FITC-labeled IM3 peptide (0.5 uM) and 8× (4 uM) unlabelled competitor peptides IM3N1, IM3N2 (*all comparisons to PBS control are p<0.01); # fluorescent value of binding to […] was set at 100.
Ferrous iron # (100±2.6*); Control (no metal): 6.4±3.1; Ferric iron: 94.1±6.6*; Calcium: 47.6±3.7*; Vanadium: 53.9±5.5*; Manganese: 54.4±11.2*; Cobalt: 25.4±2.3*; Copper: 58.4±6.4*; Zinc: 71.4±8.3*; Ruthenium: 67.8±8.3*; (d) Alexa488-SA-labelled immodulator peptide IM1, IM2, IM3, IM4, IM5, IM6 (400 ng/well) were bound to NTA-coated plate charged with the indicated metals: # background (no peptide) control set to 1.0;*p<0.05, **p<0.01 vs “no peptide”

For assay [3], the target named is T1, AA111-228 DNA-binding domain of RXR-alpha (RXRa-DBD) (Homo sapiens, UniProt P19793).
T1 construct: purchased Abcam, Cambridge, MA
T1 sequence (P19793 111-228): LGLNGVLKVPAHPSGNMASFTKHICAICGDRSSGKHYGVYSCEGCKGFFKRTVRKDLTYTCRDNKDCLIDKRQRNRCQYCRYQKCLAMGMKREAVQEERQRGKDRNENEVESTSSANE
Briefly: Binding to RXRa-DBD (x3A). The settings on record: 1 ug/well RXRa-DBD, 800 ng/well SA488-labelled peptide; background subtracted. As to the method: Binding of immodulator peptides to AA111-228 DNA-binding domain of RXR-alpha (RXRa-DBD). 1 ug/well recombinant RXRa-DBD (Abcam, Cambridge, MA) was adsorbed to wells of a 96-well plate for 60 minutes at RT, then blocked with 200 uL 1% BSA in PBS buffer overnight. Plate was washed and 800 ng/well Streptavidin-Alexa 488 conjugate (SA488)-labelled IM peptide was added. The plate was incubated for 60 min at room temperature, washed and counted in a standard fluorometer (excitation/emission 485/525 nm). Background (buffer alone) was subtracted.

A short description of assay [4]: Binding to heparin-agarose spin column (x3D). The settings on record: 1 ug SA488-labelled peptide. The procedure:
1 ug Streptavidin-Alexa 488 conjugate (SA488)-labelled IM peptide in PBS buffer was loaded on a spin column packed with 0.2 ml bed volume heparin-agarose (G-Biosciences, St. Louis, MO). The column was centrifuged for 2 min at 2,000 G and the flow-through was collected. The column was then washed with 0.3 ml 1% BSA in PBS buffer and the column spin repeated. Flowthrough and wash were pooled and duplicate 20 uL aliquots counted in a standard fluorometer (excitation/emission 485/525 nm). Results are expressed as percentage of input counts that bound the heparin-agarose column, versus flowthrough. Percent counts bound to heparin-agarose resin are shown below. IM3, IM5 and IM6 peptides bind heparin-agarose in this assay.

A short description of assay [5]: Binding to Echelon PPI Arrays (x9B). Set-up: key: 0=no binding; 1=low binding; 2=medium binding; 3=high binding. To be noted: 100 pmol PPI spot, colorimetric readout. The text has this: Binding of immodulator peptides to Echelon PPI Arrays. PPI arrays were purchased from Echelon Biosciences (Sal Lake City, UT) and used according to the manufacturer's recommendations. Colorimetric readout from each 100 pmol PPI spot in the array is expressed as 0=no binding, 1=low binding, 2=medium binding and 3=high binding. […] In addition, IM3 and IM5 show slight binding to PI(3,4,5)P3.

The nature of assay [6]: Iron binding of separately labeled peptides (x2E e). To be noted: each peptide labeled separately; IM3 = 100; ferric iron. The procedure: (§2) Experiments were conducted by the procedure described above. Ferric iron-charged NTA-coated 96-well plates were used as described. 1 ug/well immodulator peptide complexed to Alexa-488-labeled streptavidin in PBS buffer was added (60 min at room temperature). The plate was washed and counted in a standard fluorometer (excitation/emission: 485/525 nm). The results (fluorescence) show improved iron-binding by the three peptides extended C-terminally by the AVD, (dA)VD, and FVS tripeptides. **p<0.01 vs IM3 control IM3: 200±29; IM4: 45±37**; IM5: 130±77; IM3AVD: 434±29**; IM3dAVD: 418±28**; IM3FVS: 371±33** • (c) Competition assay. The same procedure was used as the preceding experiment, except that 375 ng/well labeled IM3 peptide was used, plus 10× of the indicated unlabeled peptide. ‘No competing peptide’ control value was set to 100. *p<0.05 vs “no peptide” control Competing Peptide/Fluorescence • None: 100±38; IM4: 125±26; IM3: 63±27*; IM5: 40±14*; IM3AVD: 10±28* • (d) Competition assay. The same procedure was used as the preceding experiment, except that labeled IM3AVD peptide was used. **p<0.01 vs “no competing peptide” control • None: 100±9; IM4: 144±44; IM3: 35±16**; IM5: 30±19**; IM3AVD: 9±19** • (e) The same procedure was used as the preceding experiment, except that each peptide was labeled with Alexa-488-labeled streptavidin in PBS buffer and used separately. Binding to IM3 was set to =100. *p<0.05, **p<0.01 vs IM3 control. (Labeled Peptide/Fluorescence) IM1: 1.8±0.4**; IM2: 3.0±1.8**; IM3: 100.0±16.8; IM4: 7.2±1.7*; IM5: 86.7±6.4; IM6: 85.9±14.9; IM3AVD:137.7±11.8*; IM3dAVD:147.4±22.9*; IM3FVS: 101.5±10.5.

Assay [7] is described as follows: Iron-binding competition assay with labeled IM3AVD (x2E d). To be noted: labeled IM3AVD plus 10x unlabeled peptide; no competing peptide = 100. As to the method:
as §2

A short description of assay [8]: Iron-binding competition assay with labeled IM3 (x2E c). To be noted: 375 ng/well labeled IM3 plus 10x unlabeled peptide; no competing peptide = 100. The procedure: as §2
Assay [9] is described as follows: Strength of binding to iron, plate assay (x2E b). The settings on record: 1 ug/well peptide complexed to Alexa-488-streptavidin; ferric iron. The procedure: Immodulator peptides were extended C-terminally by three amino acids, to include a valine residue that is highly conserved in the “thyroglobulin type 1 motif”. The reasoning behind this attempt is that a longer conserved sequence might lead to a tighter fold overall, which might in turn result in increased metal-binding avidity. • (b) Strength of binding to iron was evaluated by plate assay.
as §2

Assay [10] has as its system A375 cells. As to the kind of experiment: A375 cell viability, CellTiterGlo (x10A). The assay is classed as cell-based. The settings on record: 72 hours. As to the method: as §1, with “have great” for “have”, “of cancer. A375” for “of cosmetics. HFF-1”, “(ATCC). They” for “(ATCC). Cells”, “compound,” for “compound, supernatants were collected for Collagen-1 ELISA assay and”
Experiment x10A. Anti-cancer activity of immodulator peptides on A375 cells. A 96-well plate was seeded with 2,000 A375 cells per well in DMEM medium containing 10% FBS and PenStrep. After 24 hrs at 37 deg C., compounds and peptides were added (each treatment done in quadruplicate). After a further 72 hours incubation, 100 uL/well of CTG assay reagent purchased from Promega Inc. (Madison, WI) was added. Plate was read after 10 minutes, as recommended by the manufacturer. Peptides were added at 2 uM. The results of this experiment are shown below, expressed as percent survival ofA375 cells.
(Cellular ATP, detected with luciferase, serves as a proxy for viable cell number.)

`N=C(N)NCCC[C@H](NC(=O)[C@H](CCCNC(=N)N)NC(=O)[C@H](CCC(N)=O)NC(=O)CNC(=O)[C@H](CCC(N)=O)NC(=O)[C@H](CO)NC(=O)[C@H](CO)NC(=O)[C@H](CCCNC(=N)N)NC(=O)[C@H](CS)NC(=O)[C@H](CCC(N)=O)NC(=O)[C@H](CCCNC(=N)N)NC(=O)[C@H](CCCCN)NC(=O)[C@H](CCCNC(=N)N)NC(=O)[C@H](Cc1ccc(O)cc1)NC(=O)[C@H](Cc1ccccc1)NC(=O)CNC(=O)[C@H](CCCNC(=N)N)NC(=O)[C@@H](N)Cc1c[nH]cn1)C(=O)NCC(=O)N1CCC[C@H]1C(=O)N[C@@H](CS)C(=O)N[C@@H](Cc1c[nH]c2ccccc12)C(=O)O` [IM6] (H-HRGFYRKRQCRSSQGQRRGPCW-OH; N-terminus and C-terminus assumed): the “COL1 immunoreactivity in supernatant” value in assay [1] was determined as 112. For the same compound, in assay [2] (Calcium), the fluorescence is 15.1 ± 1.9**. Also, the fluorescence in [2] (Copper) is reported as 2.4 ± 2.4**. Also, the fluorescence in [2] (Ferrous iron, 400 ng/well) is 20.6 ± 0.8**. In addition, in [2] (Zinc), the fluorescence was 8.4 ± 0.4**. In assay [3], this compound displayed a fluorescence of 587±192. In addition, in assay [4], the “Percent Flowthrough” value is listed as 2.0% and the Percent retained is 98.0%. In [5], the “binding to PI spot” value amounted to 0, the “binding to PI(3,4,5)P3 spot” value came to 0, the “binding to PI(4)P1 spot” value is reported as 0 and the “binding to PI(4,5)P2 spot” value was determined as 1. In assay [6], the “fluorescence of labeled peptide” value was 85.9±14.9.

Turning to `CC(C)[C@H](NC(=O)[C@H](C)NC(=O)[C@H](Cc1c[nH]c2ccccc12)NC(=O)[C@H](CS)NC(=O)[C@H](Cc1ccccc1)NC(=O)CNC(=O)[C@H](CCCNC(=N)N)NC(=O)[C@H](CCCCN)NC(=O)[C@H](CCCNC(=N)N)NC(=O)CNC(=O)[C@H](CCCCN)NC(=O)[C@H](CO)NC(=O)[C@@H]1CCCN1C(=O)[C@H](CCCNC(=N)N)NC(=O)[C@H](CS)NC(=O)[C@H](CCC(N)=O)NC(=O)[C@H](CCCCN)NC(=O)[C@H](CCCCN)NC(=O)[C@H](CCCCN)NC(=O)[C@H](Cc1ccc(O)cc1)NC(=O)[C@H](Cc1ccccc1)NC(=O)CNC(=O)[C@H](CCCCN)NC(=O)[C@@H](N)CCCCN)C(=O)N[C@@H](CC(=O)O)C(=O)O` [IM3AVD] (H-KKGFYKKKQCRPSKGRKRGFCWAVD-OH; N-terminus and C-terminus assumed), the “fluorescence of labeled IM3AVD with competing peptide” value in assay [7] is 9±19. In addition, the “fluorescence of labeled IM3 with competing peptide” value in assay [8] was determined as 10±28. The “fluorescence (iron binding)” value in [9] amounted to 434±29. Besides, the “fluorescence of labeled peptide” value in [6] is 137.7±11.8. In addition, the “percent survival of A375 cells” value in assay [10] (peptide 2 uM + Kin1400 4 uM (RIG-I agonist)) is reported as 12.5** percent; in [10] (peptide 2 uM, Buffer), 96.0%.
